In ChEMBL document CHEMBL1201861, “Genomics of Drug Sensitity in Cancer screening data, Wellcome Trust Sanger Institute”:

How the values were obtained:
Experiment in all cases: cells
Settings in all cases: Homo sapiens
T84 = assay type: functional, cell-based;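 further: growth inhibition measured with a cell viability readout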
Description: SANGER: Inhibition of human T84 cell growth in a cell viability assay.

SW13 = assay type: functional, cell-based;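 further: IC50 is inhibition of SW13 cell growth, read out with a cell viability assay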
Description: SANGER: Inhibition of human SW13 cell growth in a cell viability assay.

WM-115 = assay type: functional, cell-based
Description: SANGER: Inhibition of human WM-115 cell growth in a cell viability assay.

HCC 2998 = assay type: functional, cell-based;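 further: growth inhibition of human HCC2998 cells, measured with a cell viability read-out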
Description: SANGER: Inhibition of human HCC2998 cell growth in a cell viability assay.

SW1417 = assay type: functional, cell-based;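 further: growth inhibition of human SW1417 cells, read out with a cell viability assay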
Description: SANGER: Inhibition of human SW1417 cell growth in a cell viability assay.

PC-3 = assay type: functional, cell-based;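 further: cell viability assay measuring growth inhibition of PC-3 cells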
Description: SANGER: Inhibition of human PC-3 cell growth in a cell viability assay.

HuP-T4 = assay type: functional, cell-based;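 further: cell viability assay measuring how much HuP-T4 cell growth is inhibited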
Description: SANGER: Inhibition of human HuP-T4 cell growth in a cell viability assay.

SK-MEL-30 = assay type: functional, cell-based;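 further: growth inhibition of SK-MEL-30 cells, determined with a cell viability assay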
Description: SANGER: Inhibition of human SK-MEL-30 cell growth in a cell viability assay.

LK-2 = assay type: functional, cell-based;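 further: growth inhibition of LK-2 cells, read out with a viability assay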
Description: SANGER: Inhibition of human LK-2 cell growth in a cell viability assay.

NCI-H2342 = assay type: functional, cell-based;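 further: growth inhibition of the cancer cell line, determined with a cell viability assay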
Description: SANGER: Inhibition of human NCI-H2342 cell growth in a cell viability assay.

HCC1419 = assay type: functional, cell-based;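 further: growth inhibition of human HCC1419 cells, read out as cell viability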
Description: SANGER: Inhibition of human HCC1419 cell growth in a cell viability assay.

COLO-741 = assay type: functional, cell-based
Description: SANGER: Inhibition of human COLO-741 cell growth in a cell viability assay.

DBTRG-05MG = assay type: functional, cell-based;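 further: cell viability assay measuring growth inhibition of human DBTRG-05MG cells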
Description: SANGER: Inhibition of human DBTRG-05MG cell growth in a cell viability assay.

COR-L105 = assay type: functional, cell-based;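 further: cell growth inhibition determined with a viability assay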
Description: SANGER: Inhibition of human COR-L105 cell growth in a cell viability assay.

BCPAP = assay type: functional, cell-based;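 further: growth inhibition of BCPAP cells, read out in a cell viability assay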
Description: SANGER: Inhibition of human BCPAP cell growth in a cell viability assay.

MEL-HO = assay type: functional, cell-based
Description: SANGER: Inhibition of human MEL-HO cell growth in a cell viability assay.

GMS-10 = assay type: functional, cell-based;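 further: growth inhibition of GMS-10 cells, read out as cell viability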
Description: SANGER: Inhibition of human GMS-10 cell growth in a cell viability assay.

CAL-120 = assay type: functional, cell-based;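 further: cell growth inhibition, read out as cell viability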
Description: SANGER: Inhibition of human CAL-120 cell growth in a cell viability assay.

NCI-H727 = assay type: functional, cell-based;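 further: growth inhibition of human NCI-H727 cells, read out with a cell viability assay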
Description: SANGER: Inhibition of human NCI-H727 cell growth in a cell viability assay.

SKG-IIIa = assay type: functional, cell-based;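 further: cell growth inhibition, read out with a cell viability assay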
Description: SANGER: Inhibition of human SKG-IIIa cell growth in a cell viability assay.

HuCCT-1 = assay type: functional, cell-based, HuCCT1;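 further: growth inhibition of HuCCT-1 cells, read out by a cell viability assay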
Description: SANGER: Inhibition of human HuCCT1 cell growth in a cell viability assay.

PANC-03-27 = assay type: functional, cell-based
Description: SANGER: Inhibition of human PANC-03-27 cell growth in a cell viability assay.

IGR-1 = assay type: functional, cell-based;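 further: growth inhibition of human IGR-1 cells, read out with a cell viability assay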
Description: SANGER: Inhibition of human IGR-1 cell growth in a cell viability assay.

A-427 = assay type: functional, cell-based;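 further: growth inhibition of human A-427 cells, read out by a cell viability assay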
Description: SANGER: Inhibition of human A427 cell growth in a cell viability assay.

EFO-21 = assay type: functional, cell-based;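 further: growth inhibition of EFO-21 cells measured with a viability assay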
Description: SANGER: Inhibition of human EFO-21 cell growth in a cell viability assay.

FaDu = assay type: functional, cell-based;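 further: cell viability readout of growth inhibition in FaDu cells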
Description: SANGER: Inhibition of human FADU cell growth in a cell viability assay.

RCM-1 = assay type: functional, cell-based;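 further: growth inhibition of the RCM-1 line, determined with a cell viability readout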
Description: SANGER: Inhibition of human RCM-1 cell growth in a cell viability assay.

ACHN = assay type: functional, cell-based;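 further: cell viability read-out used to gauge how strongly growth of human ACHN cells is suppressed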
Description: SANGER: Inhibition of human ACHN cell growth in a cell viability assay.

KU-19-19 = assay type: functional, cell-based
Description: SANGER: Inhibition of human KU-19-19 cell growth in a cell viability assay.

NCI-H441 = assay type: functional, cell-based;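 further: growth inhibition of NCI-H441 cells, read out with a cell viability assay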
Description: SANGER: Inhibition of human NCI-H441 cell growth in a cell viability assay.

Daoy = assay type: functional, cell-based;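 further: daoy cell growth inhibition, read out as cell viability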
Description: SANGER: Inhibition of human Daoy cell growth in a cell viability assay.

BPH-1 = assay type: functional, cell-based;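 further: cell viability assay measuring growth inhibition of human BPH-1 cells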
Description: SANGER: Inhibition of human BPH-1 cell growth in a cell viability assay.

VM-CUB-1 = assay type: functional, cell-based;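 further: cell viability assay measuring growth inhibition of the human VM-CUB-1 cell line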
Description: SANGER: Inhibition of human VM-CUB-1 cell growth in a cell viability assay.

CAKI-1 = assay type: functional, cell-based;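 further: growth inhibition of CAKI-1 cells, measured by a cell viability assay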
Description: SANGER: Inhibition of human CAKI-1 cell growth in a cell viability assay.

CAPAN-1 = assay type: functional, cell-based;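 further: growth suppression of CAPAN-1 cells, read out by a cell viability assay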
Description: SANGER: Inhibition of human CAPAN-1 cell growth in a cell viability assay.

NCI-H630 = assay type: functional, cell-based;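 further: growth inhibition of NCI-H630 cells, read out with a cell viability assay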
Description: SANGER: Inhibition of human NCI-H630 cell growth in a cell viability assay.

OVCAR-5 = assay type: functional, cell-based;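 further: growth inhibition of human OVCAR-5 cells, read out with a cell viability assay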
Description: SANGER: Inhibition of human OVCAR-5 cell growth in a cell viability assay.

HCC1937 = assay type: functional, cell-based;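 further: growth inhibition measured with a cell viability read-out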
Description: SANGER: Inhibition of human HCC1937 cell growth in a cell viability assay.

P12-Ichikawa = assay type: functional, cell-based
NCI-H2170 = assay type: functional, cell-based;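 further: cell viability assay measuring growth inhibition of human NCI-H2170 cancer cells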
Description: SANGER: Inhibition of human NCI-H2170 cell growth in a cell viability assay.

SK-MEL-28 = assay type: functional, cell-based;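 further: growth inhibition of human SK-MEL-28 cells, read out with a cell viability assay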
Description: SANGER: Inhibition of human SK-MEL-28 cell growth in a cell viability assay.

CHL-1 = assay type: functional, cell-based;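 further: cell growth inhibition, read out with a cell viability assay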
Description: SANGER: Inhibition of human CHL-1 cell growth in a cell viability assay.

NB7 = assay type: functional, cell-based;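 further: growth inhibition of NB7 cells, read out with a cell viability assay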
Description: SANGER: Inhibition of human NB7 cell growth in a cell viability assay.

M14 = assay type: functional, cell-based;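 further: growth inhibition of M14 cells, read out with a cell viability assay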
Description: SANGER: Inhibition of human M14 cell growth in a cell viability assay.

BHY = assay type: functional, cell-based;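 further: cell growth inhibition read out by a viability assay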
Description: SANGER: Inhibition of human BHY cell growth in a cell viability assay.

Huh-7 = assay type: functional, cell-based;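 further: HuH-7 cell growth inhibition, read out with a cell viability assay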
Description: SANGER: Inhibition of human HuH-7 cell growth in a cell viability assay.

Panc1005 = assay type: functional, cell-based;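 further: growth inhibition of human PANC-10-05 cells, measured by a cell viability assay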
Description: SANGER: Inhibition of human PANC-10-05 cell growth in a cell viability assay.

MCF7 = assay type: functional, cell-based;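 further: growth inhibition of human MCF7 cells, read out with a cell viability assay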
Description: SANGER: Inhibition of human MCF7 cell growth in a cell viability assay.

KYSE-140 = assay type: functional, cell-based;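 further: cell viability assay measuring growth inhibition in human KYSE-140 cells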
Description: SANGER: Inhibition of human KYSE-140 cell growth in a cell viability assay.

786-0 = assay type: functional, cell-based
Description: SANGER: Inhibition of human 786-0 cell growth in a cell viability assay.

COLO-679 = assay type: functional, cell-based
Description: SANGER: Inhibition of human COLO-679 cell growth in a cell viability assay.

NC(=O)c1ncn([C@@H]2O[C@H](COP(=O)(O)O)[C@@H](O)[C@H]2O)c1N
IC50 (T84): > 2000 µM
IC50 (SW13): > 2000 µM
IC50 (WM-115): > 2000 µM
IC50 (HCC 2998): > 2000 µM
IC50 (SW1417): > 2000 µM
IC50 (PC-3): 349 µM
IC50 (HuP-T4): > 2000 µM
IC50 (SK-MEL-30): > 2000 µM
IC50 (LK-2): > 2000 µM
IC50 (NCI-H2342): > 2000 µM
IC50 (HCC1419): > 2000 µM
IC50 (COLO-741): > 2000 µM
IC50 (DBTRG-05MG): 1290 µM
IC50 (COR-L105): > 2000 µM
IC50 (BCPAP): 733 µM
IC50 (MEL-HO): 397 µM
IC50 (GMS-10): 663 µM
IC50 (CAL-120): 838 µM
IC50 (NCI-H727): > 2000 µM
IC50 (SKG-IIIa): > 2000 µM
IC50 (HuCCT-1): 1080 µM
IC50 (PANC-03-27): > 2000 µM
IC50 (IGR-1): > 2000 µM
IC50 (A-427): > 2000 µM
IC50 (EFO-21): > 2000 µM
IC50 (FaDu): 1060 µM
IC50 (RCM-1): > 2000 µM
IC50 (ACHN): 1210 µM
IC50 (KU-19-19): > 2000 µM
IC50 (NCI-H441): > 2000 µM
IC50 (Daoy): 1510 µM
IC50 (BPH-1): 1560 µM
IC50 (VM-CUB-1): 673 µM
IC50 (CAKI-1): > 2000 µM
IC50 (CAPAN-1): > 2000 µM
IC50 (NCI-H630): > 2000 µM
IC50 (OVCAR-5): > 2000 µM
IC50 (HCC1937): > 2000 µM
IC50 (P12-Ichikawa): 1470 µM
IC50 (NCI-H2170): > 2000 µM
IC50 (SK-MEL-28): > 2000 µM
IC50 (CHL-1): > 2000 µM
IC50 (NB7): 901 µM
IC50 (M14): 295 µM
IC50 (BHY): 405 µM
IC50 (Huh-7): > 2000 µM
IC50 (Panc1005): > 2000 µM
IC50 (MCF7): 901 µM
IC50 (KYSE-140): 1730 µM
IC50 (786-0): 1080 µM

COc1cc(Nc2c(C#N)cnc3cc(OCCCN4CCN(C)CC4)c(OC)cc23)c(Cl)cc1Cl [BOSUTINIB]
IC50 (T84): > 2 µM
IC50 (SW13): 0.738 µM
IC50 (WM-115): > 2 µM
IC50 (COLO-679): > 2 µM
IC50 (HCC 2998): > 2 µM
IC50 (SW1417): > 2 µM
IC50 (PC-3): > 2 µM
IC50 (HuP-T4): > 2 µM
IC50 (SK-MEL-30): > 2 µM
IC50 (LK-2): > 2 µM
IC50 (NCI-H2342): > 2 µM
IC50 (HCC1419): > 2 µM
IC50 (COLO-741): > 2 µM
IC50 (DBTRG-05MG): > 2 µM
IC50 (COR-L105): 1 µM
IC50 (BCPAP): > 2 µM
IC50 (MEL-HO): > 2 µM
IC50 (GMS-10): > 2 µM
IC50 (CAL-120): > 2 µM
IC50 (NCI-H727): > 2 µM
IC50 (SKG-IIIa): > 2 µM
IC50 (HuCCT-1): > 2 µM
IC50 (PANC-03-27): > 2 µM
IC50 (IGR-1): > 2 µM
IC50 (A-427): > 2 µM
IC50 (EFO-21): > 2 µM
IC50 (FaDu): > 2 µM
IC50 (RCM-1): > 2 µM
IC50 (ACHN): 0.541 µM
IC50 (KU-19-19): > 2 µM
IC50 (NCI-H441): > 2 µM
IC50 (Daoy): > 2 µM
IC50 (BPH-1): 1.45 µM
IC50 (VM-CUB-1): > 2 µM
IC50 (CAKI-1): > 2 µM
IC50 (CAPAN-1): > 2 µM
IC50 (NCI-H630): > 2 µM
IC50 (OVCAR-5): > 2 µM
IC50 (HCC1937): > 2 µM
IC50 (P12-Ichikawa): > 2 µM
IC50 (NCI-H2170): > 2 µM
IC50 (SK-MEL-28): > 2 µM
IC50 (CHL-1): 0.555 µM
IC50 (NB7): 0.0823 µM
IC50 (M14): > 2 µM
IC50 (BHY): 1.23 µM
IC50 (Huh-7): > 2 µM
IC50 (Panc1005): > 2 µM
IC50 (MCF7): > 2 µM
IC50 (KYSE-140): 1.76 µM
IC50 (786-0): > 2 µM

CC(=O)c1c(C)c2cnc(Nc3ccc(N4CCNCC4)cn3)nc2n(C2CCCC2)c1=O [PALBOCICLIB]
IC50 (T84): > 4 µM
IC50 (WM-115): > 4 µM
IC50 (COLO-679): > 4 µM
IC50 (HCC 2998): > 4 µM
IC50 (SW1417): > 4 µM
IC50 (PC-3): 1.35 µM
IC50 (HuP-T4): > 4 µM
IC50 (SK-MEL-30): > 4 µM
IC50 (LK-2): > 4 µM
IC50 (NCI-H2342): > 4 µM
IC50 (HCC1419): > 4 µM
IC50 (COLO-741): 1.32 µM
IC50 (DBTRG-05MG): > 4 µM
IC50 (COR-L105): > 4 µM
IC50 (BCPAP): 1.66 µM
IC50 (MEL-HO): > 4 µM
IC50 (GMS-10): > 4 µM
IC50 (CAL-120): > 4 µM
IC50 (NCI-H727): > 4 µM
IC50 (SKG-IIIa): > 4 µM
IC50 (HuCCT-1): > 4 µM
IC50 (PANC-03-27): > 4 µM
IC50 (IGR-1): > 4 µM
IC50 (A-427): > 4 µM
IC50 (EFO-21): > 4 µM
IC50 (FaDu): > 4 µM
IC50 (RCM-1): > 4 µM
IC50 (KU-19-19): > 4 µM
IC50 (NCI-H441): 1.55 µM
IC50 (Daoy): > 4 µM
IC50 (BPH-1): > 4 µM
IC50 (VM-CUB-1): > 4 µM
IC50 (CAKI-1): > 4 µM
IC50 (CAPAN-1): > 4 µM
IC50 (NCI-H630): > 4 µM
IC50 (OVCAR-5): 0.9 µM
IC50 (HCC1937): > 4 µM
IC50 (P12-Ichikawa): 0.096 µM
IC50 (NCI-H2170): > 4 µM
IC50 (CHL-1): > 4 µM
IC50 (NB7): 1.99 µM
IC50 (M14): > 4 µM
IC50 (BHY): 1.47 µM
IC50 (Huh-7): > 4 µM
IC50 (Panc1005): > 4 µM
IC50 (MCF7): 2.71 µM
IC50 (KYSE-140): > 4 µM
IC50 (786-0): 2.15 µM
